Reference: US20260364214A1, “MULTIVALENT FIBROBLAST ACTIVATION PROTEIN LIGANDS FOR TARGETED DELIVERY APPLICATIONS” (Philochem AG, priority 2022, published 2026)

Test system: SK-RC-52.hFAP tumors
Experiment: Quantitative biodistribution in SK-RC-52.hFAP tumor bearing mice
Assay type: in vivo, mouse (female athymic Balb/c AnNRj-Foxn1)
Conditions: i.v. 250 nmol/kg, 50 MBq/kg
Description: SK-RC-52.hFAP were grown to 80% confluence in RPMI-1640 with 10% fetal bovine serum (FBS) and 1% antibiotic-antimycotic and detached with Trypsin-EDTA (ethylenediaminetetraacetic acid) 0.05%. Tumor cells were resuspended in Hanks' Balanced Salt Solution medium. Aliquots of 5 million cells (100 μL of suspension) were injected subcutaneously in the right flank of female athymic Balb/c AnNRj-Foxn1 mice (6 to 8 wk of age).
Radiolabeling of ESV6-DOTAGA, Bi-ESV6-DOTAGA, Tri-ESV6-DOTAGA, Tetra-ESV6-DOTAGA, Hexa-ESV6-DOTAGA, Octa-ESV6-DOTAGA and FAP-2286 with lutetium-177 (a therapeutic radionuclide) was performed with different specific activities for three different studies (biodistribution, therapy and dose optimization).
Prior to the biodistribution study, precursors (100 nmol) were dissolved in 100 μL of milliQ water and diluted with 200 μL of sodium acetate (1 M in water, pH=4.5). 20 MBq of ^177Lu solution were added and the mixture was heated at 90 °C for 10 minutes, followed by dilution with […] of PBS to achieve final volume of 2 mL (20 doses of 100 μL each).
ESV6-DOTAGA, Bi-ESV6-DOTAGA, Tri-ESV6-DOTAGA, Tetra-ESV6-DOTAGA, Hexa-ESV6-DOTAGA, Octa-ESV6-DOTAGA and FAP-2286 were radiolabeled with ^177Lu as described above. Tumors were allowed to grow to an average volume of 300 mm^3. Mice were randomized and injected intravenously with radiolabeled preparations of ^177Lu-ESV6, ^177Lu-Bi-ESV6, ^177Lu-Tri-ESV6, Tetra-ESV6-DOTAGA, Hexa-ESV6-DOTAGA, Octa-ESV6-DOTAGA or ^177Lu-FAP-2286 (250 nmol/kg; 50 MBq/kg). Mice were euthanized at different time-points after the intravenous injection by CO2 asphyxiation. Tumors, organs, and blood were collected, weighted, and radioactivity was measured with a Packard Cobra Gamma Counter. Values are expressed as percent ID/g±SD [FIG. 4]. The % ID/g in the tumors was corrected considering the SK-RC-52.hFAP tumor growth rate.
Quantitative in vivo biodistribution of ^177Lu-ESV6-DOTAGA, ^177Lu-Bi-ESV6-DOTAGA, ^177Lu-Tri-ESV6-DOTAGA, ^177Lu-FAP-2286, Tetra-ESV6-DOTAGA, Hexa-ESV6-DOTAGA and Octa-ESV6-DOTAGA at different time points after intravenous administration (250 nmol/kg, 50 MBq/kg) in mice bearing SK-RC-52.hFAP tumors, are shown in Tables 1 to 4 and 10 to 12. Data are reported as % ID/g±standard deviation.
Tumor-to-organ ratios of ^177Lu-ESV6-DOTAGA, ^177Lu-Bi-ESV6-DOTAGA, ^177Lu-Tri-ESV6-DOTAGA, ^177Lu-FAP-2286, Tetra-ESV6-DOTAGA, Hexa-ESV6-DOTAGA and Octa-ESV6-DOTAGA, at different time points after intravenous administration (250 nmol/kg, 50 MBq/kg) in mice bearing SK-RC-52.hFAP tumors, are shown in Tables 5 to 8 and 13 to 15. Avg.=average; Std.d=standard deviation.

SMILES: N#C[C@@H]1CC(F)(F)CN1C(=O)CNC(=O)c1ccnc2c(NC(=O)CCC(=O)NCCNC(=O)CCOCC(COCCC(=O)NCCNC(=O)CCC(=O)Nc3cccc4c(C(=O)NCC(=O)N5CC(F)(F)C[C@H]5C#N)ccnc34)NC(=O)CCOCC(COCCC(=O)NC(COCCC(=O)NCCNC(=O)CCC(=O)Nc3cccc4c(C(=O)NCC(=O)N5CC(F)(F)C[C@H]5C#N)ccnc34)COCCC(=O)NCCNC(=O)CCC(=O)Nc3cccc4c(C(=O)NCC(=O)N5CC(F)(F)C[C@H]5C#N)ccnc34)NC(=O)CCC(C(=O)O)N3CCN(CC(=O)[O-])CCN(CC(=O)[O-])CCN(CC(=O)[O-])CC3)cccc12.[177Lu+3] (stereo partly shown) [^177Lu-Tetra-ESV6-DOTAGA]
- Tumor to organs ratio, Blood (6 h): 53.01
- Injected dose per gram, Blood (6 h post injection): 1.16 % ID/g
- Tumor to organs ratio, Blood (24 h): 146.80
- Injected dose per gram, Blood (24 h post injection): 0.29 % ID/g
- Tumor to organs ratio, Blood (96 h): 1062.04
- Injected dose per gram, Blood (96 h post injection): 0.01 % ID/g
- Tumor to organs ratio, Heart (6 h): 114.60
- Injected dose per gram, Heart (6 h post injection): 0.50 % ID/g
- Tumor to organs ratio, Heart (24 h): 166.10
- Injected dose per gram, Heart (24 h post injection): 0.26 % ID/g
- Tumor to organs ratio, Heart (96 h): 133.14
- Injected dose per gram, Heart (96 h post injection): 0.12 % ID/g
- Tumor to organs ratio, Intestine (6 h): 86.50
- Injected dose per gram, Intestine (6 h post injection): 0.70 % ID/g
- Tumor to organs ratio, Intestine (24 h): 284.15
- Injected dose per gram, Intestine (24 h post injection): 0.15 % ID/g
- Tumor to organs ratio, Intestine (96 h): 213.10
- Injected dose per gram, Intestine (96 h post injection): 0.07 % ID/g
- Tumor to organs ratio, Kidney (6 h): 27.69
- Injected dose per gram, Kidney (6 h post injection): 2.10 % ID/g
- Tumor to organs ratio, Kidney (24 h): 23.62
- Injected dose per gram, Kidney (24 h post injection): 1.79 % ID/g
- Tumor to organs ratio, Kidney (96 h): 2.36
- Injected dose per gram, Kidney (96 h post injection): 5.77 % ID/g
- Tumor to organs ratio, Liver (6 h): 15.19
- Injected dose per gram, Liver (6 h post injection): 3.81 % ID/g
- Tumor to organs ratio, Liver (24 h): 9.42
- Injected dose per gram, Liver (24 h post injection): 4.52 % ID/g
- Tumor to organs ratio, Liver (96 h): 2.07
- Injected dose per gram, Liver (96 h post injection): 6.64 % ID/g
- Tumor to organs ratio, Lung (6 h): 52.76
- Injected dose per gram, Lung (6 h post injection): 1.09 % ID/g
- Tumor to organs ratio, Lung (24 h): 138.32
- Injected dose per gram, Lung (24 h post injection): 0.35 % ID/g
- Tumor to organs ratio, Lung (96 h): 69.86
- Injected dose per gram, Lung (96 h post injection): 0.24 % ID/g
- Tumor to organs ratio, Muscle (6 h): 61.99
- Injected dose per gram, Muscle (6 h post injection): 0.94 % ID/g
- Tumor to organs ratio, Muscle (24 h): 98.07
- Injected dose per gram, Muscle (24 h post injection): 0.44 % ID/g
- Tumor to organs ratio, Muscle (96 h): 288.08
- Injected dose per gram, Muscle (96 h post injection): 0.06 % ID/g
- Tumor to organs ratio, Spleen (6 h): 44.00
- Injected dose per gram, Spleen (6 h post injection): 1.33 % ID/g
- Tumor to organs ratio, Spleen (24 h): 20.72
- Injected dose per gram, Spleen (24 h post injection): 2.19 % ID/g
- Tumor to organs ratio, Spleen (96 h): 3.88
- Injected dose per gram, Spleen (96 h post injection): 3.64 % ID/g
- Tumor to organs ratio, Tail (6 h): 24.06
- Injected dose per gram, Tail (6 h post injection): 1.85 % ID/g
- Tumor to organs ratio, Tail (24 h): 36.71
- Injected dose per gram, Tail (24 h post injection): 1.16 % ID/g
- Tumor to organs ratio, Tail (96 h): 24.96
- Injected dose per gram, Tail (96 h post injection): 0.54 % ID/g
- Injected dose per gram, Tumor (6 h post injection): 57.25 % ID/g
- Injected dose per gram, Tumor (24 h post injection): 42.15 % ID/g
- Injected dose per gram, Tumor (96 h post injection): 13.36 % ID/g

SMILES: N#C[C@@H]1CC(F)(F)CN1C(=O)CNC(=O)c1ccnc2c(NC(=O)CCC(=O)NCCNC(=O)CCOCC(COCCC(=O)NCCNC(=O)CCC(=O)Nc3cccc4c(C(=O)NCC(=O)N5CC(F)(F)C[C@H]5C#N)ccnc34)(COCCC(=O)NCCNC(=O)CCC(=O)Nc3cccc4c(C(=O)NCC(=O)N5CC(F)(F)C[C@H]5C#N)ccnc34)NC(=O)CCC(C(=O)O)N3CCN(CC(=O)O)CCN(CC(=O)O)CCN(CC(=O)O)CC3)cccc12 (stereo partly drawn) [Tri-ESV6-DOTAGA, 2,2′,2″-(10-(19-carboxy-1-((4-((2-((S)-2-cyano-4,4-difluoropyrrolidin-1-yl)-2-oxoethyl)carbamoyl)quinolin-8-yl)amino)-14,14-bis((3-((2-(4-((4-((2-((S)-2-cyano-4,4-difluoropyrrolidin-1-yl)-2-oxoethyl)carbamoyl)quinolin-8-yl)amino)-4-oxobutanamido)ethyl)amino)-3-oxopropoxy)methyl)-1,4,9,16-tetraoxo-12-oxa-5,8,15-triazanonadecan-19-yl)-1,4,7,10-tetraazacyclododecane-1,4,7-triyl)triacetic acid]
- tumor uptake / biodistribution profile, in words: remarkably high tumor uptake even after 48, 72 and 96 hours post injection
